Values quoted from earlier work, collected in patent US20050090475A1, “Extended triphasic contraceptive regimens” (priority 2003, published 2005).

Columns and labels:
endometrium = conditions: animal models
[1] = molecular target: T1, endometrial progesterone receptors (Homo sapiens, UniProt P06401)
T1 sequence (P06401 1-933): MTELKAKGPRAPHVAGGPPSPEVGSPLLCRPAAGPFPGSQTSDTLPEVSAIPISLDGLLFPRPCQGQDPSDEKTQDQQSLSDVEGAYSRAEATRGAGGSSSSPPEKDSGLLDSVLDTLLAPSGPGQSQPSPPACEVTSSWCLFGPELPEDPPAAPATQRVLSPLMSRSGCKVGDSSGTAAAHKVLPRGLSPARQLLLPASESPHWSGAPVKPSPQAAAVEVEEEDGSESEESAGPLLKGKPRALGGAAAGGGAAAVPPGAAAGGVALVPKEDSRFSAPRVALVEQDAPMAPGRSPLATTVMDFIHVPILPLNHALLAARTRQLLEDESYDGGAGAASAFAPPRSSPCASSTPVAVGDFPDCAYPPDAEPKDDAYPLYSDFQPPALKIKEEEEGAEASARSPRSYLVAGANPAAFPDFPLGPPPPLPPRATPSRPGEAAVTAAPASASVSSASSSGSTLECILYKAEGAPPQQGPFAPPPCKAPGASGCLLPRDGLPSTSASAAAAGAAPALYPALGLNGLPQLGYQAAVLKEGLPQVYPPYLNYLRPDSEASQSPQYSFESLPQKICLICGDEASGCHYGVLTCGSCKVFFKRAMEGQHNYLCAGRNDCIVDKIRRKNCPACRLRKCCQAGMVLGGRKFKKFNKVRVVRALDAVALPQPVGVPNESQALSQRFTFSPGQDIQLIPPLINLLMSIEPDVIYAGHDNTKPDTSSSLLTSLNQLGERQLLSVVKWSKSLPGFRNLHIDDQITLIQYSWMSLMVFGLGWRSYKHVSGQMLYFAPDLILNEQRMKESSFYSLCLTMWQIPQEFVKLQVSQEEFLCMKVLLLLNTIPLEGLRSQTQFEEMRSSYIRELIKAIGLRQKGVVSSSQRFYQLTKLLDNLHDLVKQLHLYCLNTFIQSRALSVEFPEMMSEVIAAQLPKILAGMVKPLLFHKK

[2] = ovariectomized rat, compared with progesterone
[3] = test system: serum hormone binding globulin (SHBG); conditions: in vivo

affinity for endometrial progesterone receptors [1]: high affinity | effect on serum hormone binding globulin (SHBG) levels [3]: minimal effect
SMILES: C#C[C@]1(OC(C)=O)CC[C@H]2[C@@H]3CCC4=CC(=NO)CC[C@@H]4[C@H]3CC[C@@]21CC (mixture of isomers) [norgestimate]
endometrium in comparison to other, more androgenic, progestins (endometrium): remains relatively thick and supported | maintenance of pregnancy [2]: maintains pregnancy as well as progesterone
